Read-outs that look alike come from different tables or passages of the source.
Experiments:
[1] = Population PK analysis of plasma and urine data, healthy subjects, 1×20 mg tablet PO (ACH443-011); settings: human, in vivo
Procedure: The PK model created included an individual compartmental PK analysis using ADAPT-II® and Population PK analysis using an iterative two-stage population modeling technique (IT2S®) of plasma and urine data from a study of healthy subjects, n=29, 1×20 mg tablet PO (ACH443-011). FIG. 1 illustrates the PK model of Elvucitabine according to a three compartment model characterized by two absorption peaks, each associated with a lag (Tlag1 and Tlag2) time and a first order absorption rate constant (Ka1 and Ka2).
FIG. 2 illustrates an example of individual fit using a Population PK analysis (IT2S).

[2] = Hematology (ANC, white blood cell count) in 12 week study in HBV patients; format: in vivo, human
Procedure: Pharmacodynamics of Elvucitabine was explored by analysis of hematology (absolute neutrophil count, ANC) data obtained from a 12 week study in HBV patients. FIG. 3 illustrates the change in mean white blood cell count from baseline for three dosages of Elvucitabine (5 mg, 20 mg, and 50 mg), 100 mg 3TC, and placebo. […] FIG. 4 is a graphic representation of the change in absolute neutrophils from baseline for the same study. Table 2 provides absolute neutrophil count at 10^9/L for the three doses resulting in a baseline estimated as the mean ANC of about 4×10^9/L. A 25 percent decrease in the mean ANC corresponds to about 3×10^9/L, the threshold for the start of toxicity.

[3] = tested on: HIV; assay: In vitro IC50 for HIV; format: cell-based; settings: Human immunodeficiency virus 1
Procedure: (§1) From the foregoing results, a therapeutic window of Elvucitabine was identified. It has been determined that a 5 mg QD dose is effective for HBV and, therefore, a plasma AUCss/24 of 300 μg·h/L was identified as the efficacy threshold.

[4] = PK/PD relationship: toxicity threshold and therapeutic window (simulated concentrations vs observed ANC); design: species or system human
Source text: Pharmacokinetics and pharmacodynamics modeling was used to explore potential dosing regimens for Elvucitabine. A pharmacokinetics (PK) model was developed to describe both the plasma concentration-time data and excreted urinary amounts from previously completed studies with Elvucitabine. With the PK model in hand and pharmacodynamics (PD) results of previously completed studies, the relationship of PK and PD from an efficacy and toxicity standpoint is obtained. From the results of the PK and PD studies, a therapeutic window of Elvucitabine is defined and simulated dosing regimens ranging from 5 mg BID to 100 mg Q1 week were explored using ADAPT II® Pharmacokinetic and Pharmacodynamic Systems Analysis Software. From the simulated dosing regimen results, ten dosing regimens were identified allowing maintenance therapy with Elvucitabine at levels effective against both HIV and HBV while avoiding bone toxicity.
FIG. 5 provides a plot of the mean observed ANC and a simulated concentration-time profile for the 5 mg QD dose. As shown by the graph, the toxicity threshold is not met by the dosing regimen. As provided in FIG. 6, the 20 mg QD dose crosses the toxicity threshold at about 1008 hours.
as §1

[5] = tested on: HBV; assay: Efficacy of daily dosing for HBV; format: in vivo, human; settings: 5 mg QD dose
Procedure: as §1

Nc1nc(=O)n([C@H]2C=C[C@@H](CO)O2)cc1F [Elvucitabine, 4-amino-5-fluoro-1-((2R,5 S)-5-(hydroxymethyl)-2,5-dihydrofuran-2-yl)pyrimidin-2(1H)-one]
Vd [1]: 1600 L | fraction of drug excreted unchanged in urine [1]: about 40% | half-life ([1]; distribution (λ2) half-life): 30 h | half-life ([1]; early distribution (λ1) half-life): 0.59 h | half-life ([1]; elimination (λz) half-life): 175 h | CLnr/F ([1]; po): 9.51 L/h | Fu ([1]; po): 39.6% | Vc/F ([1]; po): 30.6 L | Vp1/F ([1]; po): 1232 L | Vp2/F ([1]; po): 369 L | oral clearance (CL/F) ([1]; po): 16 L/h | CL renal ([1]; po, 20 mg): 105 mL/min | CL/F ([1]; po, 20 mg): 15.8 L/h | Vd/F ([1]; population PK, healthy subjects, 20 mg tablet PO, read-out: Vss/F): 1630 L | Absolute Neutrophil Count (ANC), Mean ([2]; 5 mg PO daily (n = 17), Week 0): 4.1 10^9/L | Absolute Neutrophil Count (ANC), Mean ([2]; 5 mg PO daily (n = 17), Week 2): 3.4 10^9/L | Absolute Neutrophil Count (ANC), Mean ([2]; 5 mg PO daily (n = 17), Week 4): 3.4 10^9/L | Absolute Neutrophil Count (ANC), Mean ([2]; 5 mg PO daily (n = 17), Week 8): 3.5 10^9/L | Absolute Neutrophil Count (ANC), Mean ([2]; 5 mg PO daily (n = 17), Week 12): 3.6 10^9/L | Absolute Neutrophil Count (ANC), Mean ([2]; 20 mg PO daily (n = 20), Week 0): 3.8 10^9/L | Absolute Neutrophil Count (ANC), Mean ([2]; 20 mg PO daily (n = 20), Week 2): 3.7 10^9/L | Absolute Neutrophil Count (ANC), Mean ([2]; 20 mg PO daily (n = 20), Week 4): 3.2 10^9/L | Absolute Neutrophil Count (ANC), Mean ([2]; 20 mg PO daily (n = 20), Week 8): 2.8 10^9/L | Absolute Neutrophil Count (ANC), Mean ([2]; 20 mg PO daily (n = 20), Week 12): 2.7 10^9/L | change in mean white blood cell count from baseline ([2]; 50 mg (highest dose), HBV patients, FIG. 3): significant decrease | Absolute Neutrophil Count (ANC), Mean ([2]; 50 mg PO daily (n = 19), Week 0): 4.1 10^9/L | Absolute Neutrophil Count (ANC), Mean ([2]; 50 mg PO daily (n = 19), Week 2): 3.1 10^9/L | Absolute Neutrophil Count (ANC), Mean ([2]; 50 mg PO daily (n = 19), Week 4): 2.3 10^9/L | Absolute Neutrophil Count (ANC), Mean ([2]; 50 mg PO daily (n = 19), Week 8): 2.2 10^9/L | Absolute Neutrophil Count (ANC), Mean ([2]; 50 mg PO daily (n = 19), Week 12): 2.6 10^9/L | IC50 ([3]; corresponds to 4.8 nM, read-out: in vitro IC50 for HIV, as concentration): 1.08 ng/mL | IC50 ([3]; read-out: in vitro IC50 for HIV): 4.8 nM | central compartment (plasma) Cmin correlating with onset of toxicity [4]: ≥ 23 ng/mL | toxicity threshold (mean ANC about 3×10^9/L) ([4]; 5 mg QD, FIG. 5): not met | time at which toxicity threshold (mean ANC about 3×10^9/L) is crossed ([4]; 20 mg QD, FIG. 6): about 1008 hours | time at which toxicity threshold (mean ANC about 3×10^9/L) is reached ([4]; 50 mg QD, FIG. 7): 378 hours | Cmin for efficacy ([4]; HIV, based on in vitro IC50): ≥ 2 ng/mL | plasma AUCss/24 efficacy threshold ([4]; from 5 mg QD effective for HBV): 300 ng·h/mL | Cmax in deepest (P1) compartment at onset of toxicity (ANC <3×10^9/L) ([4]; human): > 40 μg/L | efficacy for HBV [5]: effective

From patent US20060084628A1, “Combination therapy for treating viral infections” (priority 2004, published 2006)
